# From EP1007530B1, “6-O-SUBSTITUTED ERYTHROMYCIN COMPOUNDS AND METHOD FOR MAKING SAME” (ABBOTT LABORATORIES, priority 1996, dated 1997)
# Legend:
# Assay in all cases: In vitro assay of antibacterial activity (agar dilution MIC)
# Format in all cases: cell-based
# [1] = system: Candida albicans CCH 442; details: BHI agar, 35-37 °C, 20 to 24 hours, unit assumed
# Description: (§1) Representative compounds of the present invention were assayed in vitro for antibacterial activity as follows: Twelve petri dishes containing successive aqueous dilutions of the test compound mixed with 10 mL of sterilized Brain Heart Infusion (BHI) agar (Difco 0418-01-5) were prepared. Each plate was inoculated with 1:100 (or 1:10 for slow-growing strains, such as Micrococcus and Streptococcus) dilutions of up to 32 different microorganisms, using a Steers replicator block. The inoculated plates were incubated at 35-37 °C for 20 to 24 hours, In addition, a control plate, using BHI agar containing no test compound, was prepared and incubated at the beginning and end of each test.
# (§2) An additional plate containing a compound having known susceptibility patterns for the organisms being tested and belonging to the same antibiotic class as the test compound was also prepared and incubated as a further control, as well as to provide test-to-test comparability. Erythromycin A was used for this purpose.
# (§3) After incubation, each plate was visually inspected. The minimum inhibitory concentration (MIC) was defined as the lowest concentration of drug yielding no growth, a slight haze, or sparsely isolated colonies on the inoculum spot as compared to the growth control. […]
# [2] = system: Enterobacter aerogenes ATCC 13048; details: BHI agar, 35-37 °C, 20 to 24 hours, unit assumed
# Description: as §1, §2, §3
# [3] = system: Enterococcus faecium ATCC 8043; details: BHI agar, 35-37 °C, 20 to 24 hours, unit assumed
# Description: as §1, §2, §3
# [4] = system: Escherichia coli DC-2; details: BHI agar, 35-37 °C, 20 to 24 hours, unit assumed
# Description: as §1, §2, §3
# [5] = system: Escherichia coli H560; details: BHI agar, 35-37 °C, 20 to 24 hours, unit assumed
# Description: as §1, §2, §3
# [6] = system: Escherichia coli JUHL; details: BHI agar, 35-37 °C, 20 to 24 hours, in µg/mL (unit assumed)
# Description: as §1, §2, §3
# [7] = system: Escherichia coli KNK 437; details: BHI agar, 35-37 °C, 20 to 24 hours, unit assumed
# Description: as §1, §2, §3
# [8] = system: Escherichia coli SS; details: BHI agar, 35-37 °C, 20 to 24 hours, unit assumed
# Description: as §1, §2, §3
# [9] = system: Klebsiella pneumoniae ATCC 8045; details: BHI agar, 35-37 °C, 20 to 24 hours, unit assumed
# Description: as §1, §2, §3
# [10] = system: Micrococcus luteus ATCC 4698; details: BHI agar, 35-37 °C, 20 to 24 hours, unit assumed
# Description: as §1, §2, §3
# [11] = system: Micrococcus luteus ATCC 9341; details: BHI agar, 35-37 °C, 20 to 24 hours, unit assumed
# Description: as §1, §2, §3
# [12] = system: Mycobacterium smegmatis ATCC 114; details: BHI agar, 35-37 °C, 20 to 24 hours, unit assumed
# Description: as §1, §2, §3
# [13] = system: Providencia struartii CMX 640; details: BHI agar, 35-37 °C, 20 to 24 hours, unit assumed
# Description: as §1, §2, §3
# [14] = system: Pseudomonas aeruginosa 5007; details: BHI agar, 35-37 °C, 20 to 24 hours, unit assumed
# Description: as §1, §2, §3
# [15] = system: Pseudomonas aeruginosa BMH10; details: BHI agar, 35-37 °C, 20 to 24 hours, in µg/mL (unit assumed)
# Description: as §1, §2, §3
# [16] = system: Pseudomonas aeruginosa DPHD-2862; details: BHI agar, 35-37 °C, 20 to 24 hours, unit assumed
# Description: as §1, §2, §3
# [17] = system: Pseudomonas aeruginosa DPHD-5263; details: BHI agar, 35-37 °C, 20 to 24 hours, in µg/mL (unit assumed)
# Description: as §1, §2, §3
# [18] = system: Pseudomonas aeruginosa K799/61; details: BHI agar, 35-37 °C, 20 to 24 hours, unit assumed
# Description: as §1, §2, §3
# [19] = system: Pseudomonas aeruginosa K799/WT; details: BHI agar, 35-37 °C, 20 to 24 hours, unit assumed
# Description: as §1, §2, §3
# [20] = system: Pseudomonas capacia 2961; details: BHI agar, 35-37 °C, 20 to 24 hours, in µg/mL (unit assumed)
# Description: as §1, §2, §3
# [21] = system: Staphylococcus aureus 1775; details: BHI agar, 35-37 °C, 20 to 24 hours, unit assumed
# Description: as §1, §2, §3
# [22] = system: Staphylococcus aureus A-5278; details: BHI agar, 35-37 °C, 20 to 24 hours, unit assumed
# Description: as §1, §2, §3
# [23] = system: Staphylococcus aureus ATCC 6538P; details: BHI agar, 35-37 °C, 20 to 24 hours, unit assumed
# Description: as §1, §2, §3
# [24] = system: Staphylococcus aureus CMX 553; details: BHI agar, 35-37 °C, 20 to 24 hours, unit assumed
# Description: as §1, §2, §3
# [25] = system: Staphylococcus aureus CMX 642A; details: BHI agar, 35-37 °C, 20 to 24 hours, unit assumed
# Description: as §1, §2, §3
# [26] = system: Staphylococcus aureus NCTC10649M; details: BHI agar, 35-37 °C, 20 to 24 hours, unit assumed
# Description: as §1, §2, §3
# [27] = system: Staphylococcus epidermidis 3519; details: BHI agar, 35-37 °C, 20 to 24 hours, unit assumed
# Description: as §1, §2, §3
# [28] = system: Streptococcus agalactiae CMX 508; details: BHI agar, 35-37 °C, 20 to 24 hours, unit assumed
# Description: as §1, §2, §3
# [29] = system: Streptococcus bovis A-5169; details: BHI agar, 35-37 °C, 20 to 24 hours, unit assumed
# Description: as §1, §2, §3
# [30] = system: Streptococcus pyogenes 930; details: BHI agar, 35-37 °C, 20 to 24 hours, unit assumed
# Description: as §1, §2, §3
# [31] = system: Streptococcus pyogenes EES61; details: BHI agar, 35-37 °C, 20 to 24 hours, unit assumed
# Description: as §1, §2, §3
# [32] = system: Actinetobacter calcoaceticus CMX 669; details: BHI agar, 35-37 °C, 20 to 24 hours, unit assumed
# Description: as §1
# (§4) An additional plate containing a compound having known susceptibility patterns for the organisms being tested and belonging to the same antibiotic class as the test compound was also prepared and incubated as a further control, as well as to provide test-to-test comparability.
# as §3
# [33] = system: Staphylococcus aureus A5177; details: BHI agar, 35-37 °C, 20 to 24 hours, unit assumed
# Description: as §1, §4, §3
Structure (SMILES),MIC [1],MIC [2],MIC [3],MIC [4],MIC [5],MIC [6],MIC [7],MIC [8],MIC [9],MIC [10],MIC [11],MIC [12],MIC [13],MIC [14],MIC [15],MIC [16],MIC [17],MIC [18],MIC [19],MIC [20],further results
"CC[C@H]1OC(=O)[C@H](C)[C@@H](O[C@H]2C[C@@](C)(OC)[C@@H](O)[C@H](C)O2)[C@H](C)[C@@H](O[C@@H]2O[C@H](C)C[C@H](N(C)C)[C@H]2O)[C@](C)(OCC(O)CNCc2ccccc2)C[C@@H](C)C(=O)[C@H](C)[C@@H](O)[C@]1(C)O (stereo partly drawn) [Example 7, Compound of Formula (X): X is =O, R is 2-hydroxy-3-(benzylamino)propyl]",> 100 µg/mL,50 µg/mL,0.39 µg/mL,6.2 µg/mL,1.56 µg/mL,12.5,12.5 µg/mL,0.2 µg/mL,25 µg/mL,0.78 µg/mL,0.02 µg/mL,0.2 µg/mL,> 100 µg/mL,> 100 µg/mL,25,> 100 µg/mL,> 100,0.39 µg/mL,100 µg/mL,> 100,MIC [21]: > 100 µg/mL; MIC [22]: > 100 µg/mL; MIC [23]: 0.39 µg/mL; MIC [24]: 0.39 µg/mL; MIC [25]: 0.39 µg/mL; MIC [26]: 0.39 µg/mL; MIC [27]: 0.39 µg/mL; MIC [28]: 0.01 µg/mL; MIC [29]: 0.01 µg/mL; MIC [30]: > 100 µg/mL; MIC [31]: 0.01 µg/mL; MIC [32]: 12.5 µg/mL; MIC [33]: 3.1 µg/mL
"C#CCO[C@]1(C)C[C@@H](C)C(=O)[C@H](C)[C@@H](O)[C@](C)(O)[C@@H](CC)OC(=O)[C@H](C)[C@@H](O[C@H]2C[C@@](C)(OC)[C@@H](O)[C@H](C)O2)[C@H](C)[C@H]1O[C@@H]1O[C@H](C)C[C@H](N(C)C)[C@H]1O [Example 10, Compound of Formula (X): X is =O, R is -CH2-C≡CH]",> 100 µg/mL,> 100 µg/mL,0.1 µg/mL,100 µg/mL,25 µg/mL,50,> 100 µg/mL,0.78 µg/mL,> 100 µg/mL,0.78 µg/mL,0.05 µg/mL,0.39 µg/mL,> 100 µg/mL,> 100 µg/mL,100,> 100 µg/mL,> 100,3.1 µg/mL,> 100 µg/mL,>100,MIC [21]: > 100 µg/mL; MIC [22]: > 100 µg/mL; MIC [23]: 0.2 µg/mL; MIC [24]: 0.39 µg/mL; MIC [25]: 0.39 µg/mL; MIC [26]: 0.39 µg/mL; MIC [27]: 0.2 µg/mL; MIC [28]: 0.05 µg/mL; MIC [29]: 0.01 µg/mL; MIC [30]: > 100 µg/mL; MIC [31]: 0.01 µg/mL; MIC [32]: 12.5 µg/mL; MIC [33]: 6.2 µg/mL
"CC[C@H]1OC(=O)[C@H](C)[C@@H](O[C@H]2C[C@@](C)(OC)[C@@H](O)[C@H](C)O2)[C@H](C)[C@@H](O[C@@H]2O[C@H](C)C[C@H](N(C)C)[C@H]2O)[C@](C)(OCC(O)Cn2ccnc2)C[C@@H](C)C(=O)[C@H](C)[C@@H](O)[C@]1(C)O (stereo partly drawn) [Example 5, Compound of Formula (X): X is =O, R is 2-hydroxy-3-(imidazol-1-yl)propyl]",> 100 µg/mL,100 µg/mL,0.39 µg/mL,50 µg/mL,50 µg/mL,25,50 µg/mL,0.78 µg/mL,100 µg/mL,3.1 µg/mL,0.1 µg/mL,1.56 µg/mL,> 100 µg/mL,> 100 µg/mL,100,> 100 µg/mL,> 100,1.56 µg/mL,> 100 µg/mL,> 100,MIC [21]: > 100 µg/mL; MIC [22]: > 100 µg/mL; MIC [23]: 0.78 µg/mL; MIC [24]: 0.78 µg/mL; MIC [25]: 0.78 µg/mL; MIC [26]: 0.78 µg/mL; MIC [27]: 1.56 µg/mL; MIC [28]: 0.1 µg/mL; MIC [29]: 0.05 µg/mL; MIC [30]: > 100 µg/mL; MIC [31]: 0.05 µg/mL; MIC [32]: 12.5 µg/mL; MIC [33]: 12.5 µg/mL
